Literature values as cited in patent US20230293063A1 (SOMNUS SCIENTIFIC LTD, priority 2020, published 2023).

CC(C)c1cccc(C(C)C)c1O [propofol, 2,6-diisopropylphenol]
fraction metabolized in the liver (Smits, Annaert and Allegaert, 2017): 90% | free fraction of the total drug concentration (blood): 2%
